Patent US10705094B2, “TNF receptor signaling modulator assay” (UCB Biopharma SRL, priority 2015, dated 2020)

Tests used:
[1] = molecular target: T1, TNFα binding to the TNF receptor (TNFR-ECD) (Homo sapiens, UniProt P01375); assay: Meso Scale Discovery (MSD) assay of TNFα binding to plate-coated TNFR-ECD; conditions: MSD assay, TNF 2 ng/ml, 5% DMSO; read-out: EC50 (enhanced binding of TNFα to immobilised ECD-TNFR)
T1 construct: purchased R&D Systems
Experimental: 384 well uncoated plates (standard binding) Meso Scale Discovery plates (MSD) were coated overnight with the extracellular domain of TNFR (TNFR-ECD) (10 μl, 1 ug/mL in PBS). To ensure even distribution plates were centrifuged at 1000 rpm for 2 minutes. The plates were then sealed and stored at +4° C. overnight.
The wells of the plates were then washed three times in 50 μl phosphate buffered saline pH 6.5 (PB) with 0.05% Tween 20 (wash buffer), and then blocked with 50 μl 2% BSA. The plates were then incubated at room temperature on a shaker (600 rpm) for 2 hours. After this incubation plates were washed (3×50 μl wash buffer per well).
During the blocking incubation, compounds of formulae (1) and (2) were pre-incubated with TNF (R&D Systems) prior to addition to the pre-blocked and washed MSD plates. For a single point assay as shown in FIG. 3A the compounds were assayed at a final concentration of 100 μM (5% final v/v DMSO).
Pre-diluted compounds of formulae (1) and (2) were added at a ratio of 1:1 to 4 ng/mL TNF (final concentration 2 ng/ml), and then incubated at room temperature on a shaker 600 rpm for 1 hour.
10 μl of pre-incubated mixtures of compound of formulae (1) or (2) with TNFα were added to the prepared MSD plate and incubated at room temperature on a shaker for 1 hour.
The plates were then washed with wash buffer (3×50 μl per well). Sulfo-tagged anti-TNF polyclonal antibody was then added to each well and the plates incubated for a further 1.5 hours at room temperature on a shaker.
The plates were then washed (3×50 μl wash buffer per well), followed by the addition of 50 μl MSD Read buffer T plus surfactant (diluted 1 in 2 in H2O) and read on a SECTOR Imager 6000.
For single point assays percentage inhibition was calculated using a control sample without compound.
For EC50s determination results were calculated by standard means using a 4 parameter logistic model (sigmoidal dose response model).

[2] = system: TNFα-induced IL-8 production; assay: Inhibition of TNFα-induced IL-8 production in human monocytes; format: cell-based; conditions: Monocyte, 18 h
Experimental: Venous blood from healthy donors was collected by venupuncture into sodium/heparin containing tubes (BD Biosciences). Peripheral blood mononuclear cells (PBMC) were isolated by density gradient centrifugation with Ficoll Paque (Amersham Biosciences). Briefly, 10 mL of blood was diluted 1:1 (v/v) with RPMI 1640 (Gibco) and carefully layered onto 20 mL Ficoll Paque. Cells were spun down for 30 minutes (min) at 470 g, the PBMC collected, washed once in RPMI 1640 and any remaining contaminating erythrocytes lysed in erythrocyte lysis buffer (1 g/L KHCO3, 8.3 g/L NH4Cl, 0.0372 g/L EDTA). Isolation of monocytes from the PBMC was performed using CD14+ Magnetic MicroBeads (Miltenyi Biotec) according to the manufacturer's instructions. Briefly, PBMC were resuspended in Dulbecco's modified Eagle's medium containing 5% BSA (Sigma) and 2 mM EDTA (Sigma) at 1×10^7 cells/ml. 25 μL of CD14 MicroBeads per 10^7 total cells were incubated for 15 min at room temperature. The magnetic separation was performed using a LS column (Miltenyi Biotec). […]
Human IL-8 was measured in the cell culture supernatants using enzyme-linked immunosorbent assay (ELISA) kits from R&D Systems Ltd. according to the manufacturer's instructions. […] Plates were read at a wavelength of 630 nm with correction at 470 nm.

CD40L = molecular target: T2, CD40L (Homo sapiens, UniProt P29965); assay: Mass spectrometric analysis of CD40L trimer stabilisation; format: binding; conditions: in the presence of DMSO
T2 sequence (P29965 113-261 limits assumed): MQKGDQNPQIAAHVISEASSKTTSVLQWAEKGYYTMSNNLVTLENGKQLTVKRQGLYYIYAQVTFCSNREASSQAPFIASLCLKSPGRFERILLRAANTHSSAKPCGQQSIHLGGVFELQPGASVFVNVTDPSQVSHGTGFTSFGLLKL
Excerpt: Mass spectrometric analysis has shown that CD40L, which also forms homotrimers, is destabilised by DMSO, resulting in a reduced amount of the trimeric CD40L. The assay protocol used was the same as that described in Example 3 for TNFα, but using CD40L instead.

T1 sequence (P01375 77-233 limits assumed): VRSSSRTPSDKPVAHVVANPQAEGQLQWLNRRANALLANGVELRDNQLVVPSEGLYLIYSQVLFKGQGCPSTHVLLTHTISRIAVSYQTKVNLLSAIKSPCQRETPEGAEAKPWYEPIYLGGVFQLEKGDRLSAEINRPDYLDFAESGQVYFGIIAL

Row | SMILES | EC50 [1] [µM] | IC50 [2] [µM] | stabilisation of trimeric CD40L (CD40L)
1 | Cc1ccc(C)c(Cn2c(C(O)c3ccncc3)nc3ccccc32)c1 (stereo not shown) [Compound (1), [1-(2,5-Dimethylbenzyl)-1H-benzimidazol-2-yl](pyridin-4-yl)methanol] | 4.6 | 0.454 | stabilise trimeric CD40L
2 | Cc1ccc(C)c(Cn2c(C(O)c3ccncc3)nc3ccc(-c4cnn(C)c4)cc32)c1 (stereo not shown) [Compound (2), [1-(2,5-Dimethylbenzyl)-6-(1-methyl-1H-pyrazol-4-yl)-1H-benzimidazol-2-yl](pyridin-4-yl)methanol] | 3.7 | – | –
